Drawing on ChEMBL document CHEMBL4376868, “Structure-Activity Relationship Study of Novel 6-Aryl-2-benzoyl-pyridines as Tubulin Polymerization Inhibitors with Potent Antiproliferative Properties” (J Med Chem, 2020), this text covers IC50 for 13 molecules.

What is called IC50 is the concentration that inhibits the measured activity by half. A low value points to greater potency.

Common to all, as to type: functional, cell-based
Assay [1] concerns M14. Description: Antiproliferative activity against human M14 cells measured after 72 hrs by MTS assay. As to conditions: M14, 72 h.
For assay [2], the system named is SK-BR-3. Kind of assay: Antiproliferative activity against human SK-BR-3 cells measured after 72 hrs by MTS assay. As to conditions: SK-BR-3, 72 h.
Assay [3] concerns MDA-MB-231. Description: Antiproliferative activity against human MDA-MB-231 cells measured after 72 hrs by MTS assay. As to conditions: MDA-MB-231, 72 h. Background: Formazan colour is commonly taken as a measure of viable cells.
Assay [4] has as its system MDA-MB-453. Description: Antiproliferative activity against human MDA-MB-453 cells measured after 72 hrs by MTS assay. As to conditions: MDA-MB-453, 72 h.
The subject of assay [5] is RPMI-7951. Kind of assay: Antiproliferative activity against human RPMI7951 cells measured after 72 hrs by MTS assay. The following applies: RPMI-7951, 72 h.
Assay [6] relates to A-375. Kind of assay: Antiproliferative activity against human A375 cells measured after 72 hrs by MTS assay. As to conditions: A-375, 72 h.

`COc1cc(C(=O)c2cccc(-c3ccc(C#N)cc3)n2)cc(OC)c1OC`: the half-maximal inhibitory concentration (IC50) in assay [1] came to 12.8 nM; in assay [2], 12.3 nM; in assay [3] it was 28.1 nM; in assay [4] it was 10.6 nM; in assay [5], 11.9 nM; in assay [6], 12.3 nM.

In the case of `COc1cc(C(=O)c2cccc(-c3ccc(C)c(Cl)c3)n2)cc(OC)c1OC`, the IC50 is 16.6 nM in assay [1]; 13.4 nM in assay [2]; 20 nM in assay [3]; 13.5 nM in assay [4]; 22.6 nM in assay [5]; 24.2 nM in assay [6].

In the case of `COc1cc(C(=O)c2cccc(-c3cncnc3)n2)cc(OC)c1OC`, the concentration for half-maximal inhibition (IC50) in assay [1], in assay [2], in assay [3], in assay [4], in assay [5] and in assay [6] was more than 1000 nM throughout.

As for `COc1cc(C(=O)c2cccc(-c3ccc4[nH]c5ccccc5c4c3)n2)cc(OC)c1OC`, the IC50 in assay [1] was found to be 293 nM; in assay [2], 321 nM; in assay [3], 424 nM; in assay [4], 301 nM; in assay [5] it was 202 nM; in assay [6], 277 nM.

With `COc1cc(C(=O)c2cccc(-c3cc[nH]c3)n2)cc(OC)c1OC`, the IC50 in assay [1] came to 45.1 nM; in assay [2], 51.2 nM; in assay [3] it was 41 nM; in assay [4], 33.9 nM; in assay [5] it was 45.2 nM; in assay [6] it was 46.6 nM.

Regarding `COc1cc(C(=O)c2cc(F)cc(-c3ccc(C)c(O)c3)c2)cc(OC)c1OC`, the IC50 in assay [1] was found to be 30 nM; in assay [2], 86.4 nM; in assay [3] it was 220 nM; in assay [4], 47.2 nM; in assay [5] it was 25.2 nM; in assay [6], 67 nM.

Regarding `COc1cc(C(=O)c2cccc(-c3ccc(O)cc3)n2)cc(OC)c1OC`, the concentration for half-maximal inhibition (IC50) in assay [1] came to 28.9 nM; in assay [2], 386 nM; in assay [3], 27.7 nM; in assay [4], 28.5 nM; in assay [5] it was 22.2 nM; in assay [6] it was 42.4 nM.

In the case of `COc1cc(C(=O)c2cccc(-c3c[nH]c4ccccc34)n2)cc(OC)c1OC`, the concentration for half-maximal inhibition (IC50) amounted to 17.8 nM in assay [1]; 19.7 nM in assay [2]; 23.8 nM in assay [3]; 8.5 nM in assay [4]; 19.5 nM in assay [5]; 19.2 nM in assay [6].

Turning to `COc1cc(C(=O)c2cc(O)cc(-c3ccc(C)cc3)n2)cc(OC)c1OC`, the IC50 in assay [1], in assay [2], in assay [3], in assay [4], in assay [5] and in assay [6] was more than 1000 nM each time.

In the case of `COc1cc(C(=O)c2cccc(-c3cccc(N)c3)n2)cc(OC)c1OC`, the IC50 in assay [1] was found to be 25.9 nM; in assay [2] it was 38.9 nM; in assay [3], 34.7 nM; in assay [4] it was 25.2 nM; in assay [5] it was 20.1 nM; in assay [6] it was 41.8 nM.

`CCc1ccc(-c2cccc(C(=O)c3cc(OC)c(OC)c(OC)c3)n2)cc1`: the IC50 in assay [1] was determined as 17.5 nM; in assay [2], 22.4 nM; in assay [3] it was 21 nM; in assay [4] it was 16.5 nM; in assay [5], 18.3 nM; in assay [6], 19.5 nM.

For `COc1cc(C(=O)/C=C/c2cccc(-c3ccc(C)c(O)c3)n2)cc(OC)c1OC`, the 50% inhibitory concentration (IC50) in assay [1], in assay [2], in assay [3], in assay [4], in assay [5] and in assay [6] was more than 1000 nM each time.

Turning to `COc1cc(C(=O)c2cccc(-c3ccc([N+](=O)[O-])cc3)n2)cc(OC)c1OC`, the 50% inhibitory concentration (IC50) in assay [1] came out at 10.9 nM; in assay [2], 5 nM; in assay [3] it was 9 nM; in assay [4], 6.9 nM; in assay [5], 12.9 nM; in assay [6], 11.4 nM.
